Measured values as given in the NIST ThermoML archive (doi:10.1021/acs.jced.7b00106).
± gives the expanded uncertainty stated by the source.

Conditions: Hot wire method

FC(F)(F)/C=C/Cl [(E)-1-chloro-3,3,3-trifluoroprop-1-ene]
Conditions | thermal conductivity [W/m/K]
422.34 K, 6615 kPa, Liquid | 0.05507 ± 0.0016
422.35 K, 1562 kPa, Fluid (supercritical or subcritical phases) | 0.02132 ± 0.0061
422.37 K, 5710 kPa, Liquid | 0.054 ± 0.0022
422.38 K, 5711 kPa, Liquid | 0.05406 ± 0.0015
422.4 K, 4942 kPa, Liquid | 0.05308 ± 0.0016
422.42 K, 802 kPa, Fluid (supercritical or subcritical phases) | 0.02084 ± 0.0013
422.42 K, 1401 kPa, Fluid (supercritical or subcritical phases) | 0.0211 ± 0.0043
422.42 K, 4947 kPa, Liquid | 0.05316 ± 0.0045
422.43 K, 1403 kPa, Fluid (supercritical or subcritical phases) | 0.02113 ± 0.0024
422.44 K, 4300 kPa, Liquid | 0.05228 ± 0.0033
422.44 K, 4307 kPa, Liquid | 0.05231 ± 0.0024
422.45 K, 3760 kPa, Liquid | 0.05158 ± 0.0038
422.45 K, 3761 kPa, Liquid | 0.05162 ± 0.0038
422.48 K, 2616 kPa, Liquid | 0.05022 ± 0.0044
422.48 K, 2911 kPa, Liquid | 0.05073 ± 0.0075
422.48 K, 3308 kPa, Liquid | 0.05108 ± 0.0047
422.48 K, 3310 kPa, Liquid | 0.05105 ± 0.0047
422.49 K, 1222 kPa, Fluid (supercritical or subcritical phases) | 0.02095 ± 0.003
422.49 K, 2914 kPa, Liquid | 0.05068 ± 0.0048
422.5 K, 1220 kPa, Fluid (supercritical or subcritical phases) | 0.02096 ± 0.0031
422.52 K, 28114 kPa, Liquid | 0.07065 ± 0.0043
422.54 K, 8781 kPa, Liquid | 0.05725 ± 0.0012
422.54 K, 28086 kPa, Liquid | 0.07055 ± 0.0034
422.55 K, 7612 kPa, Liquid | 0.0561 ± 0.0029
422.55 K, 8782 kPa, Liquid | 0.05725 ± 0.0013
422.56 K, 28121 kPa, Liquid | 0.0704 ± 0.0019
422.57 K, 1031 kPa, Fluid (supercritical or subcritical phases) | 0.02086 ± 0.0028
422.57 K, 1032 kPa, Fluid (supercritical or subcritical phases) | 0.02088 ± 0.003
422.57 K, 6610 kPa, Liquid | 0.0551 ± 0.00065
422.58 K, 6615 kPa, Liquid | 0.05511 ± 0.0015
422.58 K, 28093 kPa, Liquid | 0.07032 ± 0.0027
422.61 K, 5714 kPa, Liquid | 0.05406 ± 0.00091
422.62 K, 5709 kPa, Liquid | 0.05406 ± 0.0009
422.66 K, 4943 kPa, Liquid | 0.05316 ± 0.0023
422.66 K, 4946 kPa, Liquid | 0.05333 ± 0.0022
422.67 K, 800 kPa, Fluid (supercritical or subcritical phases) | 0.02086 ± 0.0011
422.69 K, 11667 kPa, Liquid | 0.05975 ± 0.00074
422.7 K, 4304 kPa, Liquid | 0.05243 ± 0.0027
422.7 K, 4305 kPa, Liquid | 0.05239 ± 0.0037
422.71 K, 3758 kPa, Liquid | 0.05174 ± 0.0045
422.71 K, 3761 kPa, Liquid | 0.05177 ± 0.0048
422.72 K, 20061 kPa, Liquid | 0.0657 ± 0.00077
422.73 K, 3307 kPa, Liquid | 0.0512 ± 0.0041
422.73 K, 3310 kPa, Liquid | 0.05125 ± 0.0067
422.74 K, 10145 kPa, Liquid | 0.0585 ± 0.0023
422.78 K, 17484 kPa, Liquid | 0.06408 ± 0.00072
422.79 K, 8779 kPa, Liquid | 0.05724 ± 0.00068
422.79 K, 8783 kPa, Liquid | 0.05727 ± 0.00068
422.79 K, 17485 kPa, Liquid | 0.06404 ± 0.00093
422.79 K, 25690 kPa, Liquid | 0.06898 ± 0.001
422.8 K, 7613 kPa, Liquid | 0.05618 ± 0.0015
422.8 K, 7618 kPa, Liquid | 0.05616 ± 0.0015
422.8 K, 25708 kPa, Liquid | 0.06904 ± 0.0028
422.8 K, 28111 kPa, Liquid | 0.07046 ± 0.004
422.8 K, 28112 kPa, Liquid | 0.07051 ± 0.0039
422.82 K, 15379 kPa, Liquid | 0.06258 ± 0.00071
422.83 K, 6608 kPa, Liquid | 0.05508 ± 0.001
422.83 K, 6614 kPa, Liquid | 0.05515 ± 0.001
422.83 K, 28116 kPa, Liquid | 0.07034 ± 0.00099
422.84 K, 15382 kPa, Liquid | 0.06256 ± 0.0013
422.84 K, 28116 kPa, Liquid | 0.07035 ± 0.00099
422.86 K, 22725 kPa, Liquid | 0.06729 ± 0.0073
422.87 K, 5712 kPa, Liquid | 0.0541 ± 0.0021
422.87 K, 5716 kPa, Liquid | 0.05417 ± 0.0021
422.87 K, 22727 kPa, Liquid | 0.06729 ± 0.011
422.89 K, 13389 kPa, Liquid | 0.06114 ± 0.0007
422.89 K, 13396 kPa, Liquid | 0.0611 ± 0.0019
422.92 K, 4948 kPa, Liquid | 0.05329 ± 0.00074
422.93 K, 4948 kPa, Liquid | 0.05326 ± 0.00074
422.93 K, 11677 kPa, Liquid | 0.05979 ± 0.00072
422.94 K, 11666 kPa, Liquid | 0.05974 ± 0.00068
422.96 K, 4303 kPa, Liquid | 0.05247 ± 0.0015
